This is an account of results in patent US10117912B2 (priority 2013, dated 2018).

≈ marks a conversion by molar mass, not a printed value. Like-named read-outs stand apart in the source and are kept apart here.

The test system of data set [1] is alkaline phosphatase from bovine intestinal mucosa. The format is biochemical.
Data set [2] in a line: Equilibrium solubility of phenytoin in assay buffer. The format is physicochemical. How it is done: 10 mg of phenytoin was added to a 20 mL scintillation vial containing 2 mL assay buffer, pH 7.4 (122 mM NaCl, 25 mM NaHCO3, 10 mM glucose, 10 mM HEPES, 3 mM KCl, 1.2 mM MgSO4, 1.4 mM CaCl2, and 0.4 mM K2HPO4). The vials were placed in a shaker incubator at different temperatures (28, 32 and 37° C.). After 48 h, drug suspension from vial was centrifuged at 13000 g for 20 min. Using a 0.2 μm syringe filter, the supernatant was filtered into a fresh glass vial and analyzed using HPLC. The experiments were performed in triplicate.

The mark [3] stands for this setting: prodrug S=6.1 with 0.6 IU/mL enzyme, 3 h.

In the case of `O=C1NC(c2ccccc2)(c2ccccc2)C(=O)N1COP(=O)(O)O` [fosphenytoin, Fosphenytoin disodium], the kcat in data set [1] was determined as 2880 s⁻¹. Also, in data set [1] (fosphenytoin 586 μM, various enzyme concentrations), the “extent of conversion of prodrug to drug” value is listed as “Complete conversion”. Further, in data set [1] (pH 7.4), the “Vmax (Michaelis-Menten)” value came to 51.1 ± 1.8 µM/min. Moreover, the Michaelis-Menten constant (Km) in data set [1] (pH 7.4, read-out: KM (Michaelis-Menten)) turned out to be 828 ± 81.6 µM. The “membrane integrity (TEER)” value in the data set on MDCKII-wt monolayer (3 h treatment, pH 7.4, 32° C., enzyme alone or prodrug alone at S=0.8 or S=6.1) is on record as “not compromised”. In the data set on MDCKII-wt monolayer (setting [3]), the TEER value is over 60 ohms/cm^2 and the “membrane integrity (TEER), prodrug with enzyme” value was “minor compromise of intercellular tight junctions”.

For the compound `O=C1NC(=O)C(c2ccccc2)(c2ccccc2)N1` [phenytoin], the “effect of temperature on solubility” value in data set [2] (28° C. and 37° C., pH 7.4) was “unaffected”. For the same compound, the solubility at 48 h in data set [2] (aqueous buffer, thermodynamic from solid, pH 7.4 and 32° C., assay buffer, 48 h) was determined as 126 ± 5.6 µM (≈ 31.9 µg/mL).

alkaline phosphatase: the “membrane integrity (TEER)” value in the data set with MDCKII-wt monolayer (pH 7.4) was “not compromised”.

As usually defined, the kcat is the maximal rate divided by the concentration of active sites. One may read the Km as the concentration of substrate that gives half-maximal velocity. The solubility is how much of the substance goes into solution per volume. A lower solubility goes with a poorly soluble substance.
